Measured values as given in US20250304560A1, “MODULATORS OF NLRP3 INFLAMMASOME AND RELATED PRODUCTS AND METHODS” (Neumora Therapeutics, Inc., priority 2022, published 2025).
Where two headings read alike, the source gives them in different places.

Columns and labels:
NLRP3 inflammasome = NLRP3 inflammasome (Homo sapiens, UniProt Q96P20); test: NLRP3 inflammasome activation in THP1 macrophages, IL-1β AlphaLISA
IL-6 = IL-6 AlphaLISA in LPS-primed THP1 macrophages
[1] = IL-1β Activity (nM), THP1 macrophages, PMA, LPS priming, nigericin 6.7 uM activation
[2] = Homo sapiens, THP-1, read-out: IL-6 Activity (μM), THP1 macrophages, PMA, LPS priming, nigericin 6.7 uM
[3] = Homo sapiens, THP-1, read-out: IL-6 Activity (μM)
[4] = read-out: IL-6 Activity, THP1 macrophages, PMA, LPS priming, nigericin 6.7 uM

NLRP3 inflammasome, sequence (Q96P20 whole entry): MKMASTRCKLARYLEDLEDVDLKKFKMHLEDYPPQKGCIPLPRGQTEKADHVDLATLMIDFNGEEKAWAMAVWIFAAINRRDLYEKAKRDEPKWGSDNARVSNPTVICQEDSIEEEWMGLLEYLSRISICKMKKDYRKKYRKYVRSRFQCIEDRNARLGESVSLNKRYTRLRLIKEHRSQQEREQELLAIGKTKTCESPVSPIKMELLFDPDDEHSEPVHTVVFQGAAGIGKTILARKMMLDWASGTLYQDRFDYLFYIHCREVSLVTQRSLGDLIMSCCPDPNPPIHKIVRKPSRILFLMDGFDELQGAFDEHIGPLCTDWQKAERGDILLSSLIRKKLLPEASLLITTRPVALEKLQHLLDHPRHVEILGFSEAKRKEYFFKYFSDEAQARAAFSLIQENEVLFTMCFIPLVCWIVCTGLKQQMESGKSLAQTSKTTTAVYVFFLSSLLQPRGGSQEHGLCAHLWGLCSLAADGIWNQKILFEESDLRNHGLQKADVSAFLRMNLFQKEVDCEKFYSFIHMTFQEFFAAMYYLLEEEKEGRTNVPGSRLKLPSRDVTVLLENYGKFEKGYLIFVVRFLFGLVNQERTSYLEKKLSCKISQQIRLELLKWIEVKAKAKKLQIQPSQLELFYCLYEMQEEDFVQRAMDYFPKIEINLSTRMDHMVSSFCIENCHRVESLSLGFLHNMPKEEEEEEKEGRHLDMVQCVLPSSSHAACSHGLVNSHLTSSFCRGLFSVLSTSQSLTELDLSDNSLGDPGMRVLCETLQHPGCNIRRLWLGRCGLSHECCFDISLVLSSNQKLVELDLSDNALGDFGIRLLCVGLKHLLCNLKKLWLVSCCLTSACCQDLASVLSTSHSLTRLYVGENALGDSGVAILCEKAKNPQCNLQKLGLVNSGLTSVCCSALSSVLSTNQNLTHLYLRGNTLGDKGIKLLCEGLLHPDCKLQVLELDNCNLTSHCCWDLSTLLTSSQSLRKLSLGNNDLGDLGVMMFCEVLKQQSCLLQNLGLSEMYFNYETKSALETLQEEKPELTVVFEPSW

IC50 (NLRP3 inflammasome; [1]) | IC50 (IL-6; [2]) | IC50 (NLRP3 inflammasome) | IC50 (IL-6; [3]) | IC50 (IL-6; [4]) | Structure (SMILES)
100 to 500 nM | > 10 µM |  |  |  | Cc1ccc(O)c(-c2ccc(N[C@@H]3CCCN(C)C3)nn2)c1 [compound 4]
< 1 nM | 5 to 10 µM |  |  |  | Cc1cc(F)cc(O)c1-c1ccc(N[C@@H]2CCCN(C)C2)nn1 [compound 6]
1 to 10 nM | > 10 µM |  |  |  | Cc1cc(-c2ccccc2O)nnc1N[C@@H]1CCCN(C)C1 [compound 8]
 |  | 1 to 10 nM | > 10 µM |  | Cc1cc(C2CC2)cc(O)c1-c1ccc(N[C@@H]2CCCN(C)C2)nn1 [compound 13]
> 1000 nM | > 10 µM |  |  |  | CN1CCC[C@@H](N(C)c2ccc(-c3ccccc3O)nn2)C1 [compound 17]
> 1000 nM | 5 to 10 µM |  |  |  | Cc1cccc(-c2ccc(N(C)[C@@H]3CCCN(C)C3)nn2)c1O [compound 18]
> 1000 nM | 5 to 10 µM |  |  |  | Cc1ccc(O)c(-c2ccc(N(C)[C@@H]3CCCN(C)C3)nn2)c1 [compound 19]
> 1000 nM | 5 to 10 µM |  |  |  | CN1CCC[C@@H](N(C)c2ccc(-c3ccc(F)cc3O)nn2)C1 [compound 20]
10 to 100 nM | > 10 µM |  |  |  | Cc1cc(N(C)[C@@H]2CCCN(C)C2)nnc1-c1ccccc1O [compound 23]
10 to 100 nM | 1 to 5 µM |  |  |  | Cc1c(F)ccc(-c2ccc(N(C)[C@@H]3CCCN(C)C3)nn2)c1O [compound 24]
> 1000 nM | 1 to 5 µM |  |  |  | Cc1cc(-c2ccc(N(C)[C@@H]3CCCN(C)C3)nn2)c(O)cc1F [compound 25]
1 to 10 nM | > 10 µM |  |  |  | Cc1cc(N(C)[C@@H]2CCCN(C)C2)nnc1-c1ccc(F)cc1O [compound 26]
10 to 100 nM | > 10 µM |  |  |  | CCc1ccc(-c2ccc(N(C)[C@@H]3CCCN(C)C3)nn2)c(O)c1 [compound 27]
 |  | > 1000 nM | > 10 µM |  | CN1CC[C@@H](N(C)c2ccc(-c3ccccc3O)nn2)C1 [compound 33]
 |  | 10 to 100 nM | > 10 µM |  | Cc1cc(C[C@@H]2CCCN(C)C2)nnc1-c1ccc(F)cc1O [compound 36, (S)-5-fluoro-2-(4-methyl-6-((1-methylpiperidin-3-yl)methyl)pyridazin-3-yl) phenol]
 |  | 500 to 1000 nM | > 10 µM |  | Cc1cc(C[C@@H]2CCCN(C)C2)nnc1-c1ccc(C(F)(F)F)cc1O [compound 37]
1 to 10 nM |  |  |  | 1 to 5 µM | Cc1cc(N[C@@H]2CCCN(C)C2)nnc1-c1ccc(F)c(C)c1O [compound 38]
10 to 100 nM | > 10 µM |  |  |  | Cc1cc(N[C@@H]2CCCN(CCF)C2)nnc1-c1ccccc1O [compound 39]
500 to 1000 nM | > 10 µM |  |  |  | Cc1cc(N[C@H]2CN(C)CC(F)(F)C2)nnc1-c1ccccc1O [compound 40]
10 to 100 nM | > 10 µM |  |  |  | Cc1cc(N[C@@H]2C[C@H](F)CN(C)C2)nnc1-c1ccccc1O [compound 42]
10 to 100 nM | > 10 µM |  |  |  | Cc1cc(N[C@H]2CN(C)CC[C@@H]2F)nnc1-c1ccc(F)cc1O [compound 48]

IC50 (NLRP3 inflammasome; [1]) | IC50 (IL-6; [2]) | IC50 (NLRP3 inflammasome) | IC50 (IL-6; [3]) | IC50 (IL-6; [4]) | Structure (SMILES)
1 to 10 nM | > 10 µM |  |  |  | CN1CCC[C@@H](Nc2cc(F)c(-c3ccccc3O)nn2)C1 [compound 52]
< 1 nM | > 10 µM |  |  |  | CCN1CCC[C@@H](Nc2cc(C)c(-c3ccccc3O)nn2)C1 [compound 56]
< 1 nM | 5 to 10 µM |  |  |  | Cc1cc(N[C@@H]2CCCN(C(C)C)C2)nnc1-c1ccccc1O [compound 57]
< 1 nM | 5 to 10 µM |  |  |  | CCN1CCC[C@@H](Nc2cc(C)c(-c3ccc(F)cc3O)nn2)C1 [compound 58]
< 1 nM | > 10 µM |  |  |  | CCN1CCC[C@@H](Nc2ccc(-c3c(C)cc(F)cc3O)nn2)C1 [compound 60]
1 to 10 nM | > 10 µM |  |  |  | Cc1cc(N[C@@H]2CCCN(C)C2)nnc1-c1c(C)cc(F)cc1O [compound 62]
1 to 10 nM | > 10 µM |  |  |  | Cc1cc(N(C)[C@@H]2CCCN(C)C2)nnc1-c1ccc(F)c(C)c1O [compound 64]
1 to 10 nM | > 10 µM |  |  |  | Cc1cc(-c2nnc(N[C@@H]3CCCN(C)C3)cc2C)c(O)cc1F [compound 65]
100 to 500 nM | 5 to 10 µM |  |  |  | Cc1cc(-c2nnc(N(C)[C@@H]3CCCN(C)C3)cc2C)c(O)cc1F [compound 66]
1 to 10 nM | 5 to 10 µM |  |  |  | Cc1cc(N[C@@H]2CCCN(C)C2)nnc1-c1c(C)cccc1O [compound 69]
 |  | 10 to 100 nM | > 10 µM |  | Cc1cc(C[C@@H]2CCCN(C)C2)nnc1-c1ccccc1O [compound 70]
 | > 10 µM |  |  |  | Cc1cc(-c2ccc(C(F)(F)F)cc2O)nnc1N[C@@H]1CCCN(C)C1 [compound 74]
1 to 10 nM | 5 to 10 µM |  |  |  | Cc1cc(-c2nnc(N[C@@H]3CCCN(C)C3)cc2C)c(O)cc1C(F)(F)F [compound 76]
10 to 100 nM | > 10 µM |  |  |  | Cc1cc(-c2ccc(F)cc2O)nnc1N[C@@H]1CCCN(C)C1 [compound 77]
1 to 10 nM | > 10 µM |  |  |  | Cc1cc(-c2c(C)cccc2O)nnc1N[C@@H]1CCCN(C)C1 [compound 78]
100 to 500 nM | < 1 µM |  |  |  | Cc1cc(-c2cc(C)c(N[C@@H]3CCCN(C)C3)nn2)c(O)cc1F [compound 79]
1 to 10 nM | 5 to 10 µM |  |  |  | Cc1cc(-c2ccc(F)c(C)c2O)nnc1N[C@@H]1CCCN(C)C1 [compound 80]
1 to 10 nM | > 10 µM |  |  |  | Cc1cc(-c2c(C)cc(F)cc2O)nnc1N[C@@H]1CCCN(C)C1 [compound 84]
10 to 100 nM | > 10 µM |  |  |  | Cc1cc(-c2ccc(C#N)cc2O)nnc1N[C@@H]1CCCN(C)C1 [compound 91]
 |  | > 1000 nM |  |  | Cc1cc(NC[C@H]2COCCO2)nnc1-c1ccccc1O [compound 119]

Second part, the compound before the results:

Structure (SMILES) | IC50 (NLRP3 inflammasome; [1]) | IC50 (IL-6; [2]) | IC50 (NLRP3 inflammasome) | IC50 (IL-6; [3]) | IC50 (IL-6; [4])
Cc1cccc(-c2ccc(N[C@@H]3CCCN(C)C3)nn2)c1O [compound 5] | 1 to 10 nM | > 10 µM |  |  | 
Cc1cc(-c2ccc(N[C@@H]3CCCN(C)C3)nn2)c(O)cc1F [compound 9] | 100 to 500 nM | > 10 µM |  |  | 
Cc1c(F)ccc(-c2ccc(N[C@@H]3CCCN(C)C3)nn2)c1O [compound 10] | 10 to 100 nM | 5 to 10 µM |  |  | 
CCc1cc(C)c(-c2ccc(N[C@@H]3CCCN(C)C3)nn2)c(O)c1 [compound 12] | < 1 nM | > 10 µM |  |  | 
CCc1ccc(-c2ccc(N[C@@H]3CCCN(C)C3)nn2)c(O)c1 [compound 14] | 10 to 100 nM | > 10 µM |  |  | 
CCc1ccc(-c2cc(C)c(N[C@@H]3CCCN(C)C3)nn2)c(O)c1 [compound 16] | 1 to 10 nM |  |  |  | 
Cc1cc(N(C)[C@@H]2CCCN(C)C2)nnc1-c1ccc(C2CC2)cc1O [compound 28] |  |  | < 1 nM | < 1 µM | 
CN1CC[C@@H](Nc2ccc(-c3ccc(F)cc3O)nn2)C1 [compound 30] | > 1000 nM | > 10 µM |  |  | 
CN1CC[C@@H](Nc2ccc(-c3ccccc3O)nn2)C1 [compound 31] | > 1000 nM | > 10 µM |  |  | 
CN1CC[C@@H](N(C)c2ccc(-c3ccc(F)cc3O)nn2)C1 [compound 32] |  |  | > 1000 nM | > 10 µM | 
Cc1cc(-c2ccc(F)cc2O)nnc1O[C@@H]1CCCN(C)C1 [compound 35] |  |  | 10 to 100 nM | 5 to 10 µM | 
Cc1cc(N[C@@H]2C[C@@H](F)CN(C)C2)nnc1-c1ccccc1O [compound 41] | 10 to 100 nM |  |  |  | 
Cc1cc(N[C@H]2CN(C)CC[C@@H]2F)nnc1-c1ccccc1O [compound 43] | 10 to 100 nM | > 10 µM |  |  | 
Cc1cc(N[C@@H]2CCCN(CCF)C2)nnc1-c1ccc(F)cc1O [compound 44] | 1 to 10 nM | > 10 µM |  |  | 
Cc1cc(N[C@H]2CN(C)CC(F)(F)C2)nnc1-c1ccc(F)cc1O [compound 45] | 100 to 500 nM | > 10 µM |  |  | 
Cc1cc(N[C@@H]2C[C@H](F)CN(C)C2)nnc1-c1ccc(F)cc1O [compound 47] | 10 to 100 nM | > 10 µM |  |  | 

Structure (SMILES) | IC50 (NLRP3 inflammasome; [1]) | IC50 (IL-6; [2]) | IC50 (NLRP3 inflammasome) | IC50 (IL-6; [3]) | IC50 (IL-6; [4])
Cc1cc(N[C@H]2CN(C)CC[C@H]2F)nnc1-c1ccc(F)cc1O [compound 49] | 10 to 100 nM | > 10 µM |  |  | 
Cc1cc(N[C@H]2CN(C)CC[C@H]2F)nnc1-c1ccccc1O [compound 50] | 10 to 100 nM | > 10 µM |  |  | 
Cc1cc(N[C@@H]2CCCN(C(C)C)C2)nnc1-c1ccc(F)cc1O [compound 59] | < 1 nM | 5 to 10 µM |  |  | 
Cc1cc(N[C@@H]2CCCN(C)C2)nnc1-c1ccc(F)c(C)c1O [compound 63] | < 1 nM |  |  |  | > 10 µM
Cc1ccc(O)c(-c2nnc(N[C@@H]3CCCN(C)C3)cc2C)c1 [compound 68] | 10 to 100 nM | > 10 µM |  |  | 
Cc1cc(O[C@@H]2CCCN(C)C2)nnc1-c1ccccc1O [compound 71] |  |  | 10 to 100 nM | > 10 µM | 
Cc1cc(F)cc(O)c1-c1ccc(O[C@@H]2CCCN(C)C2)nn1 [compound 72] |  |  | 10 to 100 nM | > 10 µM | 
Cc1cc(O[C@@H]2CCCN(C)C2)nnc1-c1ccc(C(F)(F)F)cc1O [compound 73, (R)-2-(4-methyl-6-((1-methylpiperidin-3-yl)oxy)pyridazin-3-yl)-5-(trifluoromethyl) phenol] |  |  | > 1000 nM | > 10 µM | 
Cc1cc(C(F)(F)F)cc(O)c1-c1ccc(N[C@@H]2CCCN(C)C2)nn1 [compound 75] |  |  |  | > 10 µM | 
Cc1cc(-c2cccc(C)c2O)nnc1N[C@@H]1CCCN(C)C1 [compound 81] | 1 to 10 nM | > 10 µM |  |  | 
Cc1ccc(-c2cc(C)c(N[C@@H]3CCCN(C)C3)nn2)c(O)c1 [compound 82] | 10 to 100 nM | < 1 µM |  |  | 
Cc1cc(-c2ccc(Cl)cc2O)nnc1N[C@@H]1CCCN(C)C1 [compound 83] | 1 to 10 nM |  |  |  | 
Cc1cc(-c2ccccc2O)nnc1N[C@@H]1CCCN(CCF)C1 [compound 85] | > 1000 nM | > 10 µM |  |  | 
Cc1cc(-c2ccc(F)cc2O)nnc1N[C@@H]1CCCN(CCF)C1 [compound 86] | 500 to 1000 nM | > 10 µM |  |  | 
Cc1cc(N(C)[C@@H]2CCCN(C)C2)nnc1-c1ccc(C#N)cc1O [compound 90] | < 1 nM | > 10 µM |  |  | 
